pIC50: −log10 of the molar value. Counter-ions that a name gives are not always drawn.
How the values were obtained:
sodium channel = assay: [14C]guanidine flux: veratrine-evoked uptake of [14C]guanidine into rat forebrain synaptosomes (primary sodium channel assay); format: biochemical; conditions: 30° for 2½ min
Method: The screening strategy is designed to select compounds with appropriate sodium channel blocking activity and low side effect liability. To this end all compounds are processed through the primary sodium channel assay (veratrine-evoked uptake of [^14C]guanidine into rat forebrain synaptosomes) and IC50 values computed from generated concentration-effect curves.
Experiments were performed using forebrain (whole brain less cerebellum/medulla) from Male Wistar rats weighing 175-250 g. All efforts were made to reduce the number of animals used and all experiments were carried out in accordance with the UK Animals (Scientific Procedures) Act, 1986 and the European Community Council Directive of 24 Nov. 1986 (86/609/EEC). Following killing of animals by stunning and decapitation, the forebrain (whole brain less cerebellum/medulla) was rapidly dissected and transferred to a weighed tube containing ice-cold 0.25M sucrose.
Synaptosomes (heavy and light mitochondrial fraction containing synaptosomes) were prepared by transferring the forebrain (of known wet weight) to a glass Potter vessel to which 9 volumes ice-cold 0.25M sucrose had been added and homogenising, using a teflon pestle, by 8 ‘up and down strokes’ of a Braun Potter S motor driven homogeniser set to 900 rpm. The resulting homogenate was centrifuged at 1036×g at 4° for 10 min and the supernatant collected. The remaining pellet was resuspended, as above, in fresh ice-cold 0.25M sucrose and the centrifugation step repeated. The supernatant fractions were pooled and centrifuged at 40,000×g (average) at 4° for 15 min and the resulting pellet resuspended in the appropriate assay buffer at a concentration of 20-25 mg wet weight per ml appropriate assay buffer.
Both assays were carried out using 14 ml polypropylene test tubes to which a range of concentrations of the compounds under test were added.
The [^14C] guanidinine flux assay was measured using the method of Pauwels P J et al (1986) but carried out@30° for 2½ min.
(§1) Data are presented as mean±sem of number of experiments indicated in brackets.

[1] = molecular target: T1, DiHydroFolate Reductase (DHFR) (Rattus norvegicus, UniProt Q920D2); assay: Inhibition of binding of [3H]methotrexate to rat liver homogenate supernatant; conditions: 125 μM; for inhibition at 125 µM: read-out: [3H]mtx binding (% inhibition @ 125 μM)
T1 construct: from tissue; host or cells: rat liver homogenate supernatant
T1 sequence (Q920D2 1-187): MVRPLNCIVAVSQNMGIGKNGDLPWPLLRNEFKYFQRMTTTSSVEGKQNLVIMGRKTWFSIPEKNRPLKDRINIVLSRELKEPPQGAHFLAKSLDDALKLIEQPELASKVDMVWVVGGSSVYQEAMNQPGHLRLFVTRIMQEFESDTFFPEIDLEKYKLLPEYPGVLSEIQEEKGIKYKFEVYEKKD
Method: All steps were carried out at 4° (or on ice). Freshly dissected rat liver was dissected into 0.25M ice-cold Sucrose and subsequently homogenised (U-turrax) in 50 mM pH 6.0 phosphate buffer (10 ml/g tissue) containing 15 mM Dithiothreitol. The resulting homogenate was centrifuged@47,500×g for 20 min and supernatant (filtered through cotton wool to remove fatty lumps) stored @ −80° before use (Rothenberg et al).
Inhibition of the binding of [^3H]methotrexate to rat liver homogenate supernatant fractions were carried out essentially as described by Arons et al, 1975.
as §1

Structure (SMILES)	pIC50 (sodium channel)	inhibition at 125 µM [1] [%]	other results
Cn1cc(-c2cccc(Cl)c2Cl)c(N)nc1=N [CEN-42, 4(2)-Amino-5-(2,3-dichlorophenyl)-2,4(2,5)-dihydro-2(4)-imino-1-methyl pyrimidine]	–	–	pIC50 (sodium channel; listed as 42): 3.21; [3H]mtx binding (% inhibition @ 125 μM) ([1]; listed as 42, 125 µM): 32%
Cn1cc(-c2cccc(Cl)c2Cl)c(N)nc1=N [CEN-43, 4(2)-Amino-5-(2,3-dichlorophenyl)-2,4(2,5)-dihydro-2(4)-imino-1-methylpyrimidine]	–	–	pIC50 (sodium channel; listed as 43): 3.20; [3H]mtx binding (% inhibition @ 125 μM) ([1]; listed as 43, 125 µM): 20%
Cn1nc(-c2cccs2)c(N)nc1=N [CEN-61, 5(3)-Amino-6-(2-thienyl)-2,3(2,5)-dihydro-3(5)-imino-2-methyl-1,2,4-triazine methanesulfonate]	3.17	87	–
Nc1nnc(-c2cccc3c2OC(F)(F)O3)c(N)n1 [CEN-70, 3,5-Diamino-6-[4-(2,2-difluorobenzodioxolo)]-1,2,4-triazine]	2.82	66	–
Nc1cnc(-c2cccc3c2OC(F)(F)O3)c(N)n1 [CEN-89, 2,6-Diamino-3-(2,2-difluorobenzodioxol-4-yl)pyrazine]	3.14	101	–
C[n+]1cc(N)nc(N)c1-c1cc(Cl)cc(Cl)c1Cl [CEN-90]	4.01	53	–
CC(C)OCCn1nc(-c2cccc(Cl)c2Cl)c(N)nc1=N [CEN-91, 5(3)-Amino-6-(2,3-dichlorophenyl)-2,3(2,5)-dihydro-3(5)-imino-2-(2-isopropoxy)ethyl-1,2,4-triazine]	3.43	94	–
COc1cc(-c2nn(C)c(=N)nc2N)cc(OC)c1OC [CEN-101, 5(3)-Amino-6-(3,4,5-trimethoxyphenyl)-2,3(2,5)-dihydro-3(5)-imino-2-methyl-1,2,4-triazine methanesulfonate]	< 3.00	65	–
Cn1nc(-c2ccc(Oc3ccccc3)cc2)c(N)nc1=N [CEN-102, 5(3)-Amino-6-(4-phenoxyphenyl)-2,3(2,5)-dihydro-3(5)-imino-2-methyl-1,2,4-triazine methanesulfonate]	4.23	25	–
Nc1nnc(-c2ccc(Oc3ccc(-c4nnc(N)nc4N)cc3)cc2)c(N)n1 [CEN-111, Bis-[3,5-Diamino-6-(4-ARYL)-1,2,4-triazine]]	3.04	97	–
C/C(=C\c1ccccc1)c1nnc(N)nc1N [CEN-112, 3,5-Diamino-6-[E-2-(3-phenyl)propenyl]-1,2,4-triazine]	3.00	84	–
Cn1nc(-c2ccc(Oc3ccc(-c4nn(C)c(=N)nc4N)cc3)cc2)c(N)nc1=N [CEN-116]	3.02	70	–
Nc1nnc(-c2ccc3c(c2)OC(F)(F)O3)c(N)n1 [CEN-117, 3,5-Diamino-6-[5-(2,2-difluorobenzodioxolo)]-1,2,4-triazine]	< 3.00	79	–
CCn1nc(-c2cc(OC)c(OC)c(OC)c2)c(N)nc1=N [CEN-119, 5(3)-Amino-6-(3,4,5-trimethoxyphenyl)-2,3(2,5)-dihydro-3(5)-imino-2-ethyl-1,2,4-triazine methanesulfonate]	2.71	52	–
Nc1nnc(-c2cc3ccccc3oc2=O)c(N)n1 [CEN-133]	< 2.70	17	–
Cc1ccc(-c2nc(=N)n(C)nc2-c2ccc(C)cc2)cc1 [CEN-134, 3-Amino-2-methyl-5,6-bis(4-methylphenyl)-1,2,4-triazine mesylate]	5.31	6	–
Cn1nc(-c2cc(Br)c(Br)o2)c(N)nc1=N [CEN-135, 5(3)-Amino-6-[2-(4,5-dibromofuryl)]-2,3(2,5)-dihydro-3(5)-imino-2-methyl-1,2,4-triazine methanesulfonate]	4.36	89	–

Structure (SMILES)	pIC50 (sodium channel)	inhibition at 125 µM [1] [%]	other results
Cn1nc2c3ccccc3c3ccccc3c2nc1=N [CEN-136]	3.64	27	–
Cn1nc(-c2ccccc2OC(F)F)c(N)nc1=N [CEN-146, 5(3)-Amino-6-(2-difluoromethoxyphenyl)-2,3(2,5)-dihydro-3(5)-imino-2-methyl-1,2,4-triazine methanesulfonate]	3.06	3	–
Cn1nc(C(C)(c2ccccc2)c2ccccc2)c(N)nc1=N [CEN-149, 5(3)-Amino-6-(1,1-diphenylethyl)-2,3(2,5)-dihydro-3(5)-imino-2-methyl-1,2,4-triazine methanesulfonate]	4.63	4	–
Cn1nc(C2(c3ccc(Cl)cc3)CCCC2)c(N)nc1=N [CEN-150, 5(3)-Amino-6-{1-[1-(4-chlorophenyl)]cyclopentyl}-2,3(2,5)-dihydro-3(5)-imino-2-methyl-1,2,4-triazine methanesulfonate]	4.79	27	–
COc1ccc2c(OC)cccc2c1-c1nnc(N)nc1N [CEN-156]	–	–	pIC50 (sodium channel; listed as 156): 3.61; [3H]mtx binding (% inhibition @ 125 μM) ([1]; listed as 156, 125 µM): 32%
COc1ccc2c(OC)cccc2c1-c1nnc(N)nc1N [CEN-158]	–	–	pIC50 (sodium channel; listed as 158): < 3.00; [3H]mtx binding (% inhibition @ 125 μM) ([1]; listed as 158, 125 µM): −1%
CCn1nc(-c2cccc(-c3ccccc3)c2)c(N)nc1=N [CEN-162, 5(3)-Amino-6-(3-biphenyl)-2,3(2,5)-dihydro-3(5)-imino-2-ethyl-1,2,4-triazine methanesulfonate]	4.92	57	–
Nc1nnc(-c2cccnc2Cl)c(N)n1 [CEN-164, 3,5-Diamino-6-[3-(2-chloropyidyl)]-1,2,4-triazine]	3.16	0	–
Nc1nnc(-c2cccc(Cl)n2)c(N)n1 [CEN-166, 3,5-Diamino-6-[2-(6-chloropyidyl)]-1,2,4-triazine]	2.93	88	–
Nc1nnc(-c2cccnc2Oc2ccccc2)c(N)n1 [CEN-167, 3,5-Diamino-6-[3-(2-phenoxypyidyl)]-1,2,4-triazine]	< 2.70	-2	–
Nc1nnc(-c2cnc(Cl)c(Cl)c2)c(N)n1 [CEN-168, 3,5-Diamino-6-[3-(5,6-dichloropyidyl)]-1,2,4-triazine]	3.00	95	–
CCCC(CCC)c1nnc(N)nc1N [CEN-170, 3,5-Diamino-6-(1-propylbutyl)-1,2,4-triazine tosylate]	3.58	29	–
Nc1nnc(-c2cccc(OCc3ccc(C(F)(F)F)cc3C(F)(F)F)c2)c(N)n1 [CEN-171, 3,5-Diamino-6-[3-(2,4-trifluoromethylbenzyloxy)phenyl]-1,2,4-triazine]	5.70	–	[3H]mtx binding (% inhibition @ 125 μM) [1]: 91%
Nc1nnc(-c2ccc3ccccc3n2)c(N)n1 [CEN-173, 3,5-Diamino-6-(2-quinolyl)-1,2,4-triazine]	3.80	34	–
Nc1nnc(-c2cc(C(F)(F)F)cc(C(F)(F)F)c2)c(N)n1 [CEN-175, 3,5-Diamino-6-[3,5 (bis-trifluoromethyl)phenyl]-1,2,4-triazine]	–	–	pIC50 (sodium channel; listed as 175): < 2.70; [3H]mtx binding (% inhibition @ 125 μM) ([1]; listed as 175, 125 µM): −4%
Nc1nnc(-c2cccc(C(F)(F)F)c2Cl)c(N)n1 [CEN-176, 3,5-Diamino-6-(2-chloro-3-trifluoromethylphenyl)-1,2,4-triazine]	3.51	55	–
